Laboratory results from patent US20260176266A1, “PIPERIDINOPYRIMIDINE DERIVATIVE, PREPARATION METHOD THEREFOR AND USE THEREOF IN MEDICINE” (TUOJIE BIOTECH (SHANGHAI) CO., LTD., priority 2022, published 2026).
pIC50: −log10 of the molar value.

Experiments:
CDK5/p25 = CDK5/p25 (Homo sapiens, UniProt Q00535); assay: ADP-Glo kinase assay, CDK5; format: biochemical; settings: 11.5 nM CDK5/p25, 10 μM ATP (Km), Histone H1, 60 min; read-out: inhibitory activity (IC50, nM) CDK5
Protocol: (§1) The ADP-Glo kinase assay was used for testing the activity of CDKs. The compounds were diluted in 384-well plates using Echo. The starting concentration was 10 μM and was 3-fold diluted to obtain 10 concentration points, each tested in duplicate, and the final concentration of DMSO in the assay system was 1%. CDK solutions (the final concentrations were 16.5 nM CDK1/CyclinB, 1 nM CDK2/CyclinE1, 16.3 nM CDK4/CyclinD1, 11.5 nM CDK5/p25, 15.7 nM CDK6/CyclinD3, 80 nM CDK7/Cyclin H/MAT1, 15.3 nM CDK9/Cyclin T1, and 150 nM CDK12/CyclinK) prepared in assay buffer were added at 2.5 μL, and the enzymes and compounds were pre-incubated at room temperature for 10 min. ATP (the concentration was Km) & substrate solutions (20 μM ATP & 0.1 mg/mL Histone H1 Protein for CDK1/CyclinB, 15 μM ATP & 0.1 mg/mL Histone H1 Protein for CDK2/CyclinE1, 200 μM ATP & 0.2 mg/mL DYRKtide peptide for CDK4/CyclinD1, 10 μM ATP & 0.1 mg/mL Histone H1 Protein for CDK5/p25, 200 μM ATP & 0.1 mg/mL Histone H1 Protein for CDK6/CyclinD3, 70 μM ATP & 0.2 mg/mL MBP for CDK7/Cyclin H/MAT1, 60 μM ATP & 0.2 mg/mL PDKtide for CDK9/Cyclin T1, and 20 μM ATP & 80 μM pS7-CTD peptide for CDK12/CyclinK) prepared in assay buffer were added at 2.5 μL. […] Readings were taken using an Envision multimode microplate reader. Data were processed using GraphPad Prism 8, and IC50 was calculated. […]

CDK2/CyclinE1 = CDK2/CyclinE1 (Homo sapiens, UniProt P24941); assay: ADP-Glo kinase assay, CDK2; format: biochemical; settings: 1 nM CDK2/CyclinE1, 15 μM ATP (Km), Histone H1, 60 min; read-out: inhibitory activity (IC50, nM) CDK2
Protocol: The ADP-Glo kinase assay was used for testing the activity of CDKs. The compounds were diluted in 384-well plates using Echo. The starting concentration was 10 μM and was 3-fold diluted to obtain 10 concentration points, each tested in duplicate, and the final concentration of DMSO in the assay system was 1%. CDK solutions (the final concentrations were 16.5 nM CDK1/CyclinB, 1 nM CDK2/CyclinE1, 16.3 nM CDK4/CyclinD1, 11.5 nM CDK5/p25, 15.7 nM CDK6/CyclinD3, 80 nM CDK7/Cyclin H/MAT1, 15.3 nM CDK9/Cyclin T1, and 150 nM CDK12/CyclinK) prepared in assay buffer were added at 2.5 μL, and the enzymes and compounds were pre-incubated at room temperature for 10 min. ATP (the concentration was Km) & substrate solutions (20 μM ATP & 0.1 mg/mL Histone H1 Protein for CDK1/CyclinB, 15 μM ATP & 0.1 mg/mL Histone H1 Protein for CDK2/CyclinE1, 200 μM ATP & 0.2 mg/mL DYRKtide peptide for CDK4/CyclinD1, 10 μM ATP & 0.1 mg/mL Histone H1 Protein for CDK5/p25, 200 μM ATP & 0.1 mg/mL Histone H1 Protein for CDK6/CyclinD3, 70 μM ATP & 0.2 mg/mL MBP for CDK7/Cyclin H/MAT1, 60 μM ATP & 0.2 mg/mL PDKtide for CDK9/Cyclin T1, and 20 μM ATP & 80 μM pS7-CTD peptide for CDK12/CyclinK) prepared in assay buffer were added at 2.5 μL. After thorough mixing, the plates were incubated at room temperature, with CDK1/4/9/12/13 incubated for 120 min and CDK2/5/6/7 incubated for 60 min. ADP-Glo reagents were added at 4 μL, and the plates were incubated at room temperature for 40 min. Kinase detection reagents were added at 8 μL, and the plates were incubated at room temperature for 40 min. Readings were taken using an Envision multimode microplate reader. Data were processed using GraphPad Prism 8, and IC50 was calculated.
(§2) [formula] • X: the logarithm of the compound concentration; Y: % inhibition.

various tumor cell lines = assay: Inhibitory activity against tumor cells, summary over the panel of Tables 4 and 5; format: cell-based; settings: summary of Tables 4 and 5
Protocol: (§3) MCF7 (ATCC #HTB-22) and T47D (ATCC #HTB-133) breast cancer cells and PANC-1 (ATCC #CRL-1469) pancreatic cancer cells were purchased from ATCC. MDA-MB-231 (Cobioer #CBP60382), HCC1806 (Cobioer #CBP60373), and MDA-MB-468 (Cobioer #CBP60387) breast cancer cells, HCT-116 (Cobioer #CBP60028) colorectal cancer cells, and OCI-AML-3 (Cobioer #CBP60817) and MV-4-11 (Cobioer #CBP60522) leukemia cells were purchased from Nanjing Cobioer Biosciences Co., Ltd.
(§4) OCI-AML-3 was cultured in RPMI 1640 medium with 20% FBS; HCC1806 and T47D were cultured in RPMI 1640 medium with 10% FBS; MCF7, MDA-MB-231, MDA-MB-468, and PANC-1 were cultured in DMEM medium with 10% FBS; MV-4-11 was cultured in IMDM medium with 20% FBS; HCT-116 was cultured in MC′5A medium with 10% FBS.
(§5) Palbociclib-resistant cells were constructed on MCF7 parent cells, designated MCF7 Palbo-R, and the culture conditions were consistent with those of the parent cells. All tumor cells were cultured in a cell incubator at 37° C. with 5% CO2. The cells were seeded at corresponding cell densities (600 cells/well for MDA-MB-231; 500 cells/well for MDA-MB-468, PANC-1, and HCT-116; 200 cells/well for MCF7 and HCC1806; 800 cells/well for MCF7 Palbo-R; 3000 cells/well for OCI-AML-3 and MV-4-11) in 384-well plates and cultured overnight in the incubator. On the second day, the cells were treated with compounds. The maximum compound concentration was 10 μM and was 3-fold diluted to obtain 9 concentrations, each tested in duplicate, and the final concentration of DMSO was 0.1%. The cells continued to be cultured in the incubator, with MDA-MB-231, PANC-1, MDA-MB-468, OCI-AML-3, and MV-4-11 being treated with drugs for 5 days and HCC1806, MCF7, MCF7 Palbo-R, and HCT116 being treated with drugs for 7 days. Cell viability was tested using the Celltiter Glo assay kit (Promega), and the testing method was consistent with the operational method provided by the kit. Readings were taken using an Envision multimode microplate reader. Data were processed using GraphPad Prism 8, and IC50 was calculated.
(§6) Y=Bottom+(Top−Bottom)/(1+10^((Log IC50−X)×HillSlope)). Calculation formula: • X: the logarithm of the compound concentration; Y: % inhibition.

[1] = test system: MCF7 Palbo-R (palbociclib-resistant cells constructed on MCF7); assay: Inhibitory activity against tumor cells, CellTiter-Glo: MCF7 Palbo-R; format: cell-based; settings: Homo sapiens, 168 h, 7 days treatment
Protocol: as §3, §4
as §5, with “calculated. […]” for “calculated.”

[2] = test system: HCT-116 colorectal cancer cells; assay: Inhibitory activity against tumor cells, CellTiter-Glo: HCT-116; format: cell-based; settings: Homo sapiens, 168 h, HCT-116, 7 days treatment
Protocol: as §3, §4, §5, §6

CDK12/CyclinK = CDK12/CyclinK (Homo sapiens, UniProt Q9NYV4); assay: ADP-Glo kinase assay, CDK12; format: biochemical; settings: 150 nM CDK12/CyclinK, 20 μM ATP (Km), pS7-CTD peptide, 120 min; read-out: inhibitory activity (IC50, nM) CDK12
Chain of CDK12/CyclinK (Q9NYV4 whole entry, species assumed): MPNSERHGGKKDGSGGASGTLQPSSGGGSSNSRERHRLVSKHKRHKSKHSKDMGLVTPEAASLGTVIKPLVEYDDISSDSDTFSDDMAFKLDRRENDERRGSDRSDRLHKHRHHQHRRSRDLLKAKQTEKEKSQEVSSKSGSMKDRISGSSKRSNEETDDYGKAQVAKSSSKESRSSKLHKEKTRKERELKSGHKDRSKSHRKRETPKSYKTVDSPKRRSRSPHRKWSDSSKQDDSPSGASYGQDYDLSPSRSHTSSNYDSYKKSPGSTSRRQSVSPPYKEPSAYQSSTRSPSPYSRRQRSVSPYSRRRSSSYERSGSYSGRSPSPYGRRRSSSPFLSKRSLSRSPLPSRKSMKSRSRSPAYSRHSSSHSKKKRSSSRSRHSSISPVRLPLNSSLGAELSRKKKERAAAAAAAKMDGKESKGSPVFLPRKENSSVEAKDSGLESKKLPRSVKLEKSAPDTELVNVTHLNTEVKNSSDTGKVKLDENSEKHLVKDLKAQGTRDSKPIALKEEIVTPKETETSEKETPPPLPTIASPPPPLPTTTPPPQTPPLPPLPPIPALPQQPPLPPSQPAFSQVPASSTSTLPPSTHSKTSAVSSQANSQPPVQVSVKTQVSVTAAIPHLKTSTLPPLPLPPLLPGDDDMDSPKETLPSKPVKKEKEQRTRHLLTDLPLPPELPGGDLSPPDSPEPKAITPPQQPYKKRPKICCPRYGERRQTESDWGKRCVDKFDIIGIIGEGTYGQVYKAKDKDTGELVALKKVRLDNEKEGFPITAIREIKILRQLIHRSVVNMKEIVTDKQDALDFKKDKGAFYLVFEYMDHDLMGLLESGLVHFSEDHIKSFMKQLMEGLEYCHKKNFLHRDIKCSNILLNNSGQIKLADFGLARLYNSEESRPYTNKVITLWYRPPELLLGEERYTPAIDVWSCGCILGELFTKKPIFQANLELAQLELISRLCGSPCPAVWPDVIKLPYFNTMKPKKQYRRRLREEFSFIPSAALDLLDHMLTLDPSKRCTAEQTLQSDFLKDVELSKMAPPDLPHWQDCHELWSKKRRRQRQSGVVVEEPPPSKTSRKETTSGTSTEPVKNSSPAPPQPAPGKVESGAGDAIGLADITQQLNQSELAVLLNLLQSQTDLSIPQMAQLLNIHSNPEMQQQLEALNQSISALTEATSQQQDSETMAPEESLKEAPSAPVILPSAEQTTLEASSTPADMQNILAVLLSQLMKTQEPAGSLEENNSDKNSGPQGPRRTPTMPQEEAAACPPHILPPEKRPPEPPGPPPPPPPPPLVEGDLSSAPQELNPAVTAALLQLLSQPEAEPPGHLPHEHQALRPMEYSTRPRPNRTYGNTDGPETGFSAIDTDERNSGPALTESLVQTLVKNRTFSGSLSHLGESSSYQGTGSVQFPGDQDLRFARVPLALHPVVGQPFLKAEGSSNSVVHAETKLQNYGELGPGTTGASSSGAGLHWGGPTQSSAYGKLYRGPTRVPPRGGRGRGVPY
Chain of CDK12/CyclinK (O75909 whole entry partner, species assumed): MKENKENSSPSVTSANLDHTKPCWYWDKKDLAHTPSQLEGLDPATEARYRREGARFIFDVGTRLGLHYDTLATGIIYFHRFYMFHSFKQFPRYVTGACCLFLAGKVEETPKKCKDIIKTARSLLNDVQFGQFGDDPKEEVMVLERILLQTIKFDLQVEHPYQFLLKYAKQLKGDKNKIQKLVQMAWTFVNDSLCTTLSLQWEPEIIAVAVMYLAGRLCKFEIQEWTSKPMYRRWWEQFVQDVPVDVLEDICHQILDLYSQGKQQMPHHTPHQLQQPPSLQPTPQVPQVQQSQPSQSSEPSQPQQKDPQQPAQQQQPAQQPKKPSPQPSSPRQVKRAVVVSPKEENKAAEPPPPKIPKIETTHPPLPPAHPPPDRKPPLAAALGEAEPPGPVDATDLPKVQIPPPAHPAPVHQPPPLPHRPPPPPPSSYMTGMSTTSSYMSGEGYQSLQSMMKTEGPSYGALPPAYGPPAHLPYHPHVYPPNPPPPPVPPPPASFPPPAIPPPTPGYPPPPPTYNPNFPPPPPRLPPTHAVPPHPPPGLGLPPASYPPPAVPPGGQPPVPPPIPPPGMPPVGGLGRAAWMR
Protocol: as §1

[3] = test system: OVCAR3 ovarian cancer cells; assay: Inhibitory activity against ovarian cancer cells (OVCAR3), CellTiter-Glo viability; format: cell-based; settings: Homo sapiens, OVCAR-3, 120 h, OVCAR3, 5 days treatment
Protocol: OVCAR3 ovarian cancer cells were cultured in a cell incubator at […] with 5% CO2 using RPMI 1640 medium with […]. On the first day, the cells were plated in a 96-well plate at a cell concentration of 2500 cells/well and cultured overnight in the incubator. On the second day, the cells were treated with compounds. The maximum compound concentration was 10 μM and was 3-fold diluted to obtain 9 concentrations, and the final concentration of DMSO was 0.1%. After the cells were cultured in the incubator for another 5 days, cell viability was tested using the Celltiter Glo assay kit (Promega), and the testing method was consistent with the operational method provided by the kit. Data were processed using GraphPad Prism 8, and IC50 was calculated.
as §2

Chain of CDK5/p25 (Q00535 whole entry, species assumed): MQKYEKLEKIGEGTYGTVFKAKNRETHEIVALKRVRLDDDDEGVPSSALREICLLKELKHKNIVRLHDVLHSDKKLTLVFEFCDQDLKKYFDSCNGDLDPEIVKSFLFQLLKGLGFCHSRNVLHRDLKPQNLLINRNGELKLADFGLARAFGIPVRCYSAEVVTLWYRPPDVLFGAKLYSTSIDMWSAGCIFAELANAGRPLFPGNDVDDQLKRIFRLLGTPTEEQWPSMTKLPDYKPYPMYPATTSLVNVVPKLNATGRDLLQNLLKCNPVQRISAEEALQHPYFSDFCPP
Chain of CDK5/p25 (Q15078 99-307 partner limits assumed, species assumed): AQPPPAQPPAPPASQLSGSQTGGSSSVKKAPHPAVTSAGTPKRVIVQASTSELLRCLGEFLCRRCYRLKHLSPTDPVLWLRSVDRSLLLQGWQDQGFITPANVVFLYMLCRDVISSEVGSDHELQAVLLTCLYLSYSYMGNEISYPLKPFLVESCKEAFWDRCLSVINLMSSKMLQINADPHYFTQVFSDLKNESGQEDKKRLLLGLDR

IC50 (CDK5/p25) [nM] | IC50 (CDK2/CyclinE1) [nM] | pIC50 [1] | pIC50 [2] | IC50 (CDK12/CyclinK) [nM] | IC50 [3] [nM] | SMILES | inhibitory activity against the various tumor cell lines (in words) (various tumor cell lines)
6310 | 2330 | 7.39 | 7.12 | > 10000 | 24.2 | C[C@@H]1Cc2cnc(NCc3ccn(C)n3)nc2CN1C(=O)N[C@H](CN(C)C)c1ccccc1 [Example 2, (R)—N—((S)-2-(Dimethylamino)-1-phenylethyl)-6-methyl-2-(((1-methyl-TH-pyrazol-3-yl)methyl)amino)-5,8-dihydropyrido[3,4-d]pyrimidine-7(6H)-carboxamide] | high inhibitory activity
6420 | 1900 | 7.61 | 7.33 | > 10000 | 27.7 | C[C@H](Nc1ncc2c(n1)CN(C(=O)N[C@H](CN(C)C)c1ccccc1)[C@H](C)C2)c1ccccn1 [Example 6, (R)—N—((S)-2-(Dimethylamino)-1-phenylethyl)-6-methyl-2-(((S)-1-(pyridin-2-yl)ethyl)amino)-5,8-dihydropyrido[3,4-d]pyrimidine-7(6H)-carboxamide] | high inhibitory activity
